Tests used:
Assay in all cases: cells
[1] = system: D-542MG; format: functional, cell-based; details: Homo sapiens
Description: SANGER: Inhibition of human D-542MG cell growth in a cell viability assay.

[2] = system: DOK; format: functional, cell-based; details: Homo sapiens;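 further: cell viability assay read-out, values reflect inhibition of cell growth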
Description: SANGER: Inhibition of human DOK cell growth in a cell viability assay.

[3] = system: Daoy; format: functional, cell-based; details: Homo sapiens;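 further: daoy cell growth inhibition, read out as cell viability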
Description: SANGER: Inhibition of human Daoy cell growth in a cell viability assay.

[4] = system: Detroit 562; format: functional, cell-based; details: Homo sapiens;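 further: growth inhibition of human Detroit 562 cells, read out by a cell viability assay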
Description: SANGER: Inhibition of human Detroit562 cell growth in a cell viability assay.

[5] = system: EFO-21; format: functional, cell-based; details: Homo sapiens;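 further: growth inhibition of EFO-21 cells measured with a viability assay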
Description: SANGER: Inhibition of human EFO-21 cell growth in a cell viability assay.

[6] = system: HC-1; format: functional, cell-based, Homo sapiens; details: Homo sapiens, HC-1;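 further: growth inhibition of HC-1 cells measured by a cell viability assay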
Description: SANGER: Inhibition of human HC-1 cell growth in a cell viability assay.

[7] = system: HCT-15; format: functional, cell-based; details: Homo sapiens;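 further: cell viability readout, IC50 reflecting suppression of HCT-15 cell growth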
Description: SANGER: Inhibition of human HCT-15 cell growth in a cell viability assay.

[8] = system: HMV-2 cell line; format: functional, cell-based; details: Homo sapiens;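 further: growth inhibition of HMV-II cells, read out with a cell viability assay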
Description: SANGER: Inhibition of human HMV-II cell growth in a cell viability assay.

[9] = system: HN; format: functional, cell-based; details: Homo sapiens
Description: SANGER: Inhibition of human HN cell growth in a cell viability assay.

[10] = system: HSC-2; format: functional, cell-based; details: Homo sapiens;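 further: growth inhibition of human HSC-2 cells, read out by a cell viability assay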
Description: SANGER: Inhibition of human HSC-2 cell growth in a cell viability assay.

[11] = system: HT-29; format: functional, cell-based; details: Homo sapiens;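 further: growth inhibition of human HT-29 cells, read out by a cell viability assay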
Description: SANGER: Inhibition of human HT-29 cell growth in a cell viability assay.

[12] = system: Huh-7; format: functional, cell-based; details: Homo sapiens;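 further: HuH-7 cell growth inhibition, read out with a cell viability assay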
Description: SANGER: Inhibition of human HuH-7 cell growth in a cell viability assay.

[13] = system: J82; format: functional, cell-based; details: Homo sapiens;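 further: growth inhibition of J82 cells, read out with a cell viability assay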
Description: SANGER: Inhibition of human J82 cell growth in a cell viability assay.

[14] = system: KOSC-2; format: functional, cell-based; details: Homo sapiens;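 further: growth inhibition of KOSC-2 cells, read out by a cell viability assay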
Description: SANGER: Inhibition of human KOSC-2 cell growth in a cell viability assay.

[15] = system: KP-4; format: functional, cell-based; details: Homo sapiens;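 further: human KP-4 cells, with growth inhibition read out through a cell viability assay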
Description: SANGER: Inhibition of human KP-4 cell growth in a cell viability assay.

[16] = system: LCLC-97TM1; format: functional, cell-based; details: Homo sapiens;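 further: cell viability assay measuring growth inhibition of human LCLC-97TM1 cells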
Description: SANGER: Inhibition of human LCLC-97TM1 cell growth in a cell viability assay.

[17] = system: LN-405; format: functional, cell-based; details: Homo sapiens
Description: SANGER: Inhibition of human LN-405 cell growth in a cell viability assay.

[18] = system: LoVo; format: functional, cell-based; details: Homo sapiens;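 further: growth inhibition of human LoVo cells, read out with a cell viability assay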
Description: SANGER: Inhibition of human LoVo cell growth in a cell viability assay.

[19] = system: MCF7; format: functional, cell-based; details: Homo sapiens;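 further: growth inhibition of human MCF7 cells, read out with a cell viability assay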
Description: SANGER: Inhibition of human MCF7 cell growth in a cell viability assay.

[20] = system: MDA-MB-453; format: functional, cell-based; details: Homo sapiens
Description: SANGER: Inhibition of human MDA-MB-453 cell growth in a cell viability assay.

[21] = system: ME-180; format: functional, cell-based; details: Homo sapiens;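 further: cell viability assay measuring growth inhibition of ME-180 cells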
Description: SANGER: Inhibition of human ME-180 cell growth in a cell viability assay.

[22] = system: NCI-H1573; format: functional, cell-based; details: Homo sapiens;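 further: growth inhibition of NCI-H1573 cells, read out with a cell viability assay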
Description: SANGER: Inhibition of human NCI-H1573 cell growth in a cell viability assay.

[23] = system: NCI-H1755; format: functional, cell-based; details: Homo sapiens;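 further: cell viability readout used to measure growth inhibition of NCI-H1755 cells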
Description: SANGER: Inhibition of human NCI-H1755 cell growth in a cell viability assay.

[24] = system: NCI-H2087; format: functional, cell-based; details: Homo sapiens;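 further: growth inhibition determined with a cell viability readout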
Description: SANGER: Inhibition of human NCI-H2087 cell growth in a cell viability assay.

[25] = system: NCI-H28; format: functional, cell-based; details: Homo sapiens;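 further: growth inhibition of human NCI-H28 cells, read out as cell viability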
Description: SANGER: Inhibition of human NCI-H28 cell growth in a cell viability assay.

[26] = system: NCI-H358; format: functional, cell-based; details: Homo sapiens;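 further: growth inhibition of NCI-H358 human cells, read out with a cell viability assay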
Description: SANGER: Inhibition of human NCI-H358 cell growth in a cell viability assay.

[27] = system: NCI-H650; format: functional, cell-based; details: Homo sapiens;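 further: growth inhibition of NCI-H650 cells, read out by a viability assay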
Description: SANGER: Inhibition of human NCI-H650 cell growth in a cell viability assay.

[28] = system: NCI-H810; format: functional, cell-based; details: Homo sapiens;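 further: IC50 reflects inhibition of cancer cell line growth, read out with a cell viability assay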
Description: SANGER: Inhibition of human NCI-H810 cell growth in a cell viability assay.

[29] = system: OAW-28; format: functional, cell-based; details: Homo sapiens;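 further: growth inhibition of OAW-28 cells, read out with a cell viability assay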
Description: SANGER: Inhibition of human OAW-28 cell growth in a cell viability assay.

[30] = system: Panc1005; format: functional, cell-based; details: Homo sapiens;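 further: growth inhibition of human PANC-10-05 cells, measured by a cell viability assay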
Description: SANGER: Inhibition of human PANC-10-05 cell growth in a cell viability assay.

[31] = system: RCM-1; format: functional, cell-based; details: Homo sapiens;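 further: growth inhibition of the RCM-1 line, determined with a cell viability readout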
Description: SANGER: Inhibition of human RCM-1 cell growth in a cell viability assay.

[32] = system: RD; format: functional, cell-based; details: Homo sapiens
Description: SANGER: Inhibition of human RD cell growth in a cell viability assay.

[33] = system: RERF-LC-MS; format: functional, cell-based; details: Homo sapiens;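 further: growth inhibition of human RERF-LC-MS cells, read out by a cell viability assay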
Description: SANGER: Inhibition of human RERF-LC-MS cell growth in a cell viability assay.

[34] = system: SK-LU-1; format: functional, cell-based; details: Homo sapiens;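 further: cell viability assay measuring growth inhibition of human SK-LU-1 cells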
Description: SANGER: Inhibition of human SK-LU-1 cell growth in a cell viability assay.

[35] = system: SN12C; format: functional, cell-based; details: Homo sapiens;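 further: growth inhibition of human SN12C cells, measured by a cell viability assay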
Description: SANGER: Inhibition of human SN12C cell growth in a cell viability assay.

[36] = system: SNU-387; format: functional, cell-based; details: Homo sapiens
Description: SANGER: Inhibition of human SNU-387 cell growth in a cell viability assay.

[37] = system: SW1417; format: functional, cell-based; details: Homo sapiens;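 further: growth inhibition of human SW1417 cells, read out with a cell viability assay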
Description: SANGER: Inhibition of human SW1417 cell growth in a cell viability assay.

[38] = system: SW1463; format: functional, cell-based; details: Homo sapiens;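 further: growth inhibition of SW1463 cells, determined with a cell viability assay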
Description: SANGER: Inhibition of human SW1463 cell growth in a cell viability assay.

[39] = system: SW1573; format: functional, cell-based; details: Homo sapiens;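 further: growth inhibition of SW1573 cells, read out with a cell viability assay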
Description: SANGER: Inhibition of human SW1573 cell growth in a cell viability assay.

[40] = system: SW1710; format: functional, cell-based; details: Homo sapiens;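 further: growth inhibition of SW1710 cells, determined with a cell viability assay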
Description: SANGER: Inhibition of human SW1710 cell growth in a cell viability assay.

[41] = system: 23132-87; format: functional, cell-based; details: Homo sapiens
Description: SANGER: Inhibition of human 23132-87 cell growth in a cell viability assay.

[42] = system: ACHN; format: functional, cell-based; details: Homo sapiens;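 further: cell viability read-out used to gauge how strongly growth of human ACHN cells is suppressed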
Description: SANGER: Inhibition of human ACHN cell growth in a cell viability assay.

[43] = system: BFTC-909; format: functional, cell-based; details: Homo sapiens
Description: SANGER: Inhibition of human BFTC-909 cell growth in a cell viability assay.

[44] = system: CAL-39; format: functional, cell-based; details: Homo sapiens;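 further: cell viability assay measuring growth inhibition of CAL-39 cells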
Description: SANGER: Inhibition of human CAL-39 cell growth in a cell viability assay.

[45] = system: CAL-51; format: functional, cell-based; details: Homo sapiens;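 further: human CAL-51 cell line, growth inhibition read out via a cell viability assay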
Description: SANGER: Inhibition of human CAL-51 cell growth in a cell viability assay.

[46] = system: CAL-72; format: functional, cell-based; details: Homo sapiens;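 further: cell viability assay measuring inhibition of proliferation in the CAL-72 cell line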
Description: SANGER: Inhibition of human CAL-72 cell growth in a cell viability assay.

[47] = system: YAPC; format: functional, cell-based; details: Homo sapiens;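 further: growth inhibition of YAPC cells, measured with a cell viability assay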
Description: SANGER: Inhibition of human YAPC cell growth in a cell viability assay.

[48] = system: CAPAN-1; format: functional, cell-based; details: Homo sapiens;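 further: growth suppression of CAPAN-1 cells, read out by a cell viability assay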
Description: SANGER: Inhibition of human CAPAN-1 cell growth in a cell viability assay.

[49] = system: COLO-678; format: functional, cell-based; details: Homo sapiens
Description: SANGER: Inhibition of human COLO-678 cell growth in a cell viability assay.

Which results are given for `NC(=O)Nc1cc(-c2cccc(F)c2)sc1C(=O)N[C@H]1CCCNC1` [AZD-7762]?
IC50 [1]: > 2 µM; IC50 [2]: > 2 µM; IC50 [3]: 0.451 µM; IC50 [4]: 0.333 µM; IC50 [5]: > 2 µM; IC50 [6]: 0.521 µM; IC50 [7]: > 2 µM; IC50 [8]: > 2 µM; IC50 [9]: 0.846 µM; IC50 [10]: 0.873 µM; IC50 [11]: 0.894 µM; IC50 [12]: 1.4 µM; IC50 [13]: 0.805 µM; IC50 [14]: 0.247 µM; IC50 [15]: 1.46 µM; IC50 [16]: 0.316 µM; IC50 [17]: 0.877 µM; IC50 [18]: 0.162 µM; IC50 [19]: > 2 µM; IC50 [20]: > 2 µM; IC50 [21]: 1.72 µM; IC50 [22]: 1.42 µM; IC50 [23]: 0.273 µM; IC50 [24]: > 2 µM; IC50 [25]: 0.297 µM; IC50 [26]: 1.43 µM; IC50 [27]: 1.42 µM; IC50 [28]: > 2 µM; IC50 [29]: 1.85 µM; IC50 [30]: > 2 µM; IC50 [31]: 0.993 µM; IC50 [32]: > 2 µM; IC50 [33]: 0.677 µM; IC50 [34]: 0.0842 µM; IC50 [35]: 1.12 µM; IC50 [36]: 0.243 µM; IC50 [37]: 0.736 µM; IC50 [38]: > 2 µM; IC50 [39]: 0.942 µM; IC50 [40]: 0.64 µM; IC50 [41]: 0.683 µM; IC50 [42]: 0.134 µM; IC50 [43]: 0.588 µM; IC50 [44]: > 2 µM; IC50 [45]: 0.514 µM; IC50 [46]: > 2 µM; IC50 [47]: > 2 µM; IC50 [48]: > 2 µM; IC50 [49]: > 2 µM

How did the IC50 [1] turn out when `CC1=C(/C=C/C(C)=C/C=C/C(C)=C/C(=O)O)C(C)(C)CCC1` [TRETINOIN] was run?
Its IC50 is over 10 µM.

And the IC50 [2]?
The IC50 was over 10 µM.

What about the IC50 [3] of the same compound?
The IC50 was over 10 µM.

What about the IC50 [4] of the same compound?
Its IC50 is over 10 µM.

And the IC50 [5]?
The IC50 was over 10 µM.

And the IC50 [6]?
Its IC50 is over 10 µM.

What about the IC50 [7] of the same compound?
Its IC50 is over 10 µM.

And the IC50 [8]?
The IC50 was over 10 µM.

What about the IC50 [9] of the same compound?
Its IC50 is over 10 µM.

What about the IC50 [10] of the same compound?
The IC50 was over 10 µM.

And the IC50 [11]?
Its IC50 is over 10 µM.

What about the IC50 [12] of the same compound?
Its IC50 is over 10 µM.

And the IC50 [13]?
The IC50 was over 10 µM.

And the IC50 [14]?
Its IC50 is over 10 µM.

And the IC50 [15]?
The IC50 was over 10 µM.

And the IC50 [16]?
Its IC50 is over 10 µM.

What about the IC50 [17] of the same compound?
Its IC50 is over 10 µM.

And the IC50 [18]?
Its IC50 is over 10 µM.

What about the IC50 [19] of the same compound?
The IC50 was over 10 µM.

And the IC50 [20]?
Its IC50 is over 10 µM.

And the IC50 [21]?
The IC50 was over 10 µM.

What about the IC50 [22] of the same compound?
The IC50 was over 10 µM.

And the IC50 [23]?
Its IC50 is over 10 µM.

And the IC50 [24]?
The IC50 was over 10 µM.

And the IC50 [25]?
Its IC50 is over 10 µM.

And the IC50 [26]?
The IC50 was over 10 µM.

What about the IC50 [27] of the same compound?
Its IC50 is over 10 µM.

And the IC50 [28]?
The IC50 was over 10 µM.

And the IC50 [29]?
The IC50 was over 10 µM.

What about the IC50 [30] of the same compound?
The IC50 was over 10 µM.

And the IC50 [31]?
The IC50 was over 10 µM.

What about the IC50 [32] of the same compound?
The IC50 was over 10 µM.

And the IC50 [33]?
The IC50 was over 10 µM.

What about the IC50 [34] of the same compound?
Its IC50 is over 10 µM.

What about the IC50 [35] of the same compound?
Its IC50 is over 10 µM.

What about the IC50 [36] of the same compound?
Its IC50 is over 10 µM.

What about the IC50 [37] of the same compound?
Its IC50 is over 10 µM.

What about the IC50 [38] of the same compound?
Its IC50 is over 10 µM.

What about the IC50 [39] of the same compound?
Its IC50 is over 10 µM.

What about the IC50 [40] of the same compound?
Its IC50 is over 10 µM.

What about the IC50 [41] of the same compound?
Its IC50 is over 10 µM.

What about the IC50 [42] of the same compound?
The IC50 was over 10 µM.

What about the IC50 [43] of the same compound?
Its IC50 is over 10 µM.

What about the IC50 [44] of the same compound?
The IC50 was over 10 µM.

And the IC50 [45]?
The IC50 was over 10 µM.

What about the IC50 [46] of the same compound?
The IC50 was over 10 µM.

And the IC50 [47]?
The IC50 was over 10 µM.

And the IC50 [48]?
The IC50 was over 10 µM.

What about the IC50 [49] of the same compound?
The IC50 was over 10 µM.
